According to patent US9815863B2, “Hydrogen bond forming fluoro ketolides for treating diseases” (priority 2010, dated 2017):

System: 2058-dimethylated ribosomes isolated from the S. aureus N315 strain
Assay: RNA footprinting of A2058-dimethylated (Erm-modified) ribosomes from S. aureus N315
Format: binding
Settings: S. aureus N315 ribosomes dimethylated at A2058, drugs at 100 μM
Procedure: Ribosome chemical probing. rRNA probing was done following standard protocols (Merryman, C., and H. F. Noller. 1998. Footprinting and modification-interference analysis of binding sites on RNA, p. 237-253. In C. W. J. Smith (ed.), RNA:Protein Interactions, A Practical Approach. Oxford University Press, Oxford), with minor modifications. Briefly, 200 nM ribosomes were incubated with 100 μM antibiotic in 50 μL of buffer B (80 mM HEPES-KOH [pH 7.8], 20 mM MgCl2, 100 mM NH4Cl, 1.5 mM dithiothreitol) for 10 min at 37° C., followed by 10 min at 20° C. Modifying reagents (dimethyl sulfate [DMS], kethoxal, or 1-cyclohexyl-3-(2-morpholinoethyl)carbodiimide metho p-toluene sulfonate [CMCT]) were added and the modification reaction was carried out for 10 min at 37° C. After quenching the reaction and ethanol precipitation, rRNA was extracted and the distribution of modified nucleotides was assessed by primer extension.
Interaction of CEM-101 with S. aureus ribosomes dimethylated at A2058 by Erm-methyltransferase. Erm-methyltransferase modifies A2058 in 23S rRNA by consecutively adding two methyl groups to the exocyclic amino group of the adenine base. Such modification completely blocks binding of erythromycin and similar macrolides, whereas its effect on binding of ketolides is less clear (Douthwaite, S., L. H. Hansen, and P. Mauvais. 2000. Macrolide-ketolide inhibition of MLS-resistant ribosomes is improved by alternative drug interaction with domain R of 23S rRNA. Mol. Microbiol. 36:183-193; Liu, M., and S. Douthwaite. 2002. Activity of the ketolide telithromycin is refractory to Erm monomethylation of bacterial rRNA. Antimicrob. Agents Chemother. 46:1629-1633). Therefore, interaction of CEM-101 with the ribosomes isolated from a clinical S. aureus strain N315, which carries five chromosomal copies of constitutively expressed ermA gene present in the Tn554 transposon (Kuroda, M., T. Ohta, I. Uchiyama, T. Baba, H. Yuzawa, I. Kobayashi, L. Cui, A. Oguchi, K. Aoki, Y. Nagai, J. Lian, T. Ito, M. Kanamori, H. Matsumaru, A. Maruyama, H. Murakami, A. Hosoyama, Y. Mizutani-Ui, N. K. Takahashi, T. Sawano, R. Inoue, C. Kaito, K. Sekimizu, H. Hirakawa, S. Kuhara, S. Goto, J. Yabuzaki, M. Kanehisa, A. Yamashita, K. Oshima, K. Furuya, C. Yoshino, T. Shiba, M. Hattori, N. Ogasawara, H. Hayashi, and K. Hiramatsu. 2001. Whole genome sequencing of meticillin-resistant Staphylococcus aureacs. Lancet 357:1225-1240) was investigated.
Footprinting analysis was used to test interactions of ketolides (CEM-101 and telithromycin) and cladinose-containing macrolides (CEM-103 and erythromycin) with the 2058-dimethylated ribosomes isolated from the S. aureus N315 strain. Ribosomes were incubated with the drugs (present at 100 μM concentration) and probed by DMS modification. Because dimethylated A2058 blocks progression of reverse transcriptase along the RNA template, a strong reverse transcriptase stop is observed at A2058 on the primer extension gel (Vester, B., and S. Douthwaite. 1994. Domain V of 23S rRNA contains all the structural elements necessary for recognition by the ErmE methyltransferase. J. Bacteriol. 176:6999-7004; Zhong, P., Z. Cao, R. Hammond, Y. Chen, J. Beyer, V. D. Shortridge, L. Y. Phan, S. Pratt, J. Capobianco, K. A. Reich, R. K. Flamm, Y. S. Or, and L. Katz. 1999. Induction of ribosome methylation in MLS-resistant Streptococcus pneumoniae by macrolides and ketolides. Microb. Drug Resist. 5:183-188). Therefore, it is impossible to use footprinting to evaluate interactions of macrolides with this position in the S. aureus N315 ribosomes. […]

CC[C@H]1OC(=O)[C@@](C)(F)C(=O)[C@H](C)[C@@H](O[C@@H]2O[C@H](C)C[C@H](N(C)C)[C@H]2O)[C@](C)(OC)C[C@@H](C)C(=O)[C@H](C)[C@H]2N(CCCCn3cc(-c4cccc(N)c4)nn3)C(=O)O[C@]12C [CEM-101]
Protection of A2059 from DMS modification (binding to Erm-modified ribosome): protection of A2059 from DMS modification | Protection of G2505 from kethoxal modification: partially protected | Protection of U2609 from modification with CMCT: fully protected
